Experimental findings from US6743816B2, “Imidazole derivatives with anti-inflammatory activity” (J. Uriach & Cia S.A., priority 2000, dated 2004) are described below.

Counter-ions that a name gives are not always drawn.

For assay [1], the target named is T1, human COX-1 (U-937 from human histiocitic lymphoma) (Homo sapiens, UniProt P23219).
T1 construct: cell lines expressing human COX-1 (U-937 from human histiocitic lymphoma); endogenous in cells; host or cells: U-937 (human histiocytic lymphoma)
The assay is described as follows: Inhibition of COX-1 activity in human cell line (PGE2 production after arachidonic acid). It counts as cell-based. As to conditions: 0.1 μM test compound; U-937 cells; PGE2 after 10 μM arachidonic acid. As for the experimental part:
(§1) Inhibition of Cyclooxygenase-1 (COX-1) and Cyclooxygenase-2 (COX-2) Activity in Human Cell Lines
The inhibition of COX-1 and COX-2 is determined by assessing the PGE2 production after stimulation with arachidonic acid in cell lines expressing human COX-1 (U-937 from human histiocitic lymphoma) and human COX-2 (143.98.2 from human osteosarcoma), respectively.
(§2) The osteosarcoma-derived cells were cultured in 1 mL of DMEM culture medium supplemented with 10% fetal calf serum, in 24-well multidishes until confluence. U-937 cells were cultured in RPMI medium supplemented with 10% fetal calf serum in flasks.
(§3) To evaluate COX-2 activity, the medium was removed and replaced with Hepes-buffered saline solution (HBSS) without Ca^2+/Mg^2+ (2×10^5 cells/well). To evaluate COX-1 activity, the medium was removed and U-937 cells were resuspended to a final density of 3×10^6 cells/mL in HBSS without Ca^2+/Mg^2+ (1 mL/well, in 24-well multidishes). 1 μL of a solution of the test compound dissolved in DMSO or vehicle was added, and the samples were incubated for 15 min at 37° C. (5% CO2 and 95% humidity). Arachidonic acid was added (final concentration: 10 μM) and the samples were incubated for 10 min more. Next the reactions were quenched by adding indomethacin (8 mM, 30 μL). The amount of PGE2 in the supernatant was determined by specific enzymatic immunoassay (Kit Prostaglandin E2, Biotrak EIA system RPN222, Amersham Pharmacia Biotech). All the assays were performed in triplicate.

The target of assay [2] is T2, human COX-2 (143.98.2 from human osteosarcoma) (Homo sapiens, UniProt P35354).
T2 construct: human COX-2 (143.98.2 from human osteosarcoma); endogenous in cells; host or cells: 143.98.2 (human osteosarcoma)
T2 sequence (P35354 18-604): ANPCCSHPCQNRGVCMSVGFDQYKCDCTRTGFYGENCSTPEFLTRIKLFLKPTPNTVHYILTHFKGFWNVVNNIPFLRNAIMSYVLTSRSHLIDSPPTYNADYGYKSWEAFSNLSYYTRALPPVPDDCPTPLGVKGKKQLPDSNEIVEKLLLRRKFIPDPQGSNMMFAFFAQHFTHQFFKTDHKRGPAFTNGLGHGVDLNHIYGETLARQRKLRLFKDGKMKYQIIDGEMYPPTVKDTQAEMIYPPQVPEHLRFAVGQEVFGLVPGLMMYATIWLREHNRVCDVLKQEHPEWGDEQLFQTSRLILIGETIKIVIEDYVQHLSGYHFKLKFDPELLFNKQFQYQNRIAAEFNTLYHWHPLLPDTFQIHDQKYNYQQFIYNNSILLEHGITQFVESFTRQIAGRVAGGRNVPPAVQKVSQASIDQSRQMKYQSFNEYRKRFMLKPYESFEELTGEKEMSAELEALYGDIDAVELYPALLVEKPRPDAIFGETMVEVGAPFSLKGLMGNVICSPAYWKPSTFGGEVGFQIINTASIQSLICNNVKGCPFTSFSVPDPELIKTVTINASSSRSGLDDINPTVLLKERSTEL
The assay is described as follows: Inhibition of COX-2 activity in human cell line (PGE2 production after arachidonic acid). It counts as cell-based. The settings on record: 0.1 μM test compound; 143.98.2 osteosarcoma cells; PGE2 after 10 μM arachidonic acid. The procedure: as §1, §2
as §3, with “(5% CO2 and 95% humidity).” left out

T1 sequence (P23219 24-599): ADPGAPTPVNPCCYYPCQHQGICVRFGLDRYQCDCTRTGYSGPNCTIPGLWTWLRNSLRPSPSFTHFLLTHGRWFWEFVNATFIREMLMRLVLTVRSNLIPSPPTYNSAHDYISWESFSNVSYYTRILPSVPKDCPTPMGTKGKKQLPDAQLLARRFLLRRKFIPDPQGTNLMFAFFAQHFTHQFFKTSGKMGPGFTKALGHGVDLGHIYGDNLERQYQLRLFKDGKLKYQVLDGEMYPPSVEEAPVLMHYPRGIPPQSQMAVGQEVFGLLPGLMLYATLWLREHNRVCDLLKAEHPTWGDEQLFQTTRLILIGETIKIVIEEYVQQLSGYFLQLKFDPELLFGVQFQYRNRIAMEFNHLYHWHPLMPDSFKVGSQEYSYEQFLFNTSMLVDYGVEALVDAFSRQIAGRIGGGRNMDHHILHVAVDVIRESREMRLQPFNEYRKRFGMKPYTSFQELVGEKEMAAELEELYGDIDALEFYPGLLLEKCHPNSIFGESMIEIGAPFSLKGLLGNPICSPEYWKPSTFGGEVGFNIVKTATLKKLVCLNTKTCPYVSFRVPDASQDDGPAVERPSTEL

On to `CCOc1ccc(-c2c(Cl)ncn2-c2ccc(S(C)(=O)=O)cc2)cc1F` [Example 3, 4-Chloro-5-(4-ethoxy-3-fluorophenyl)-1-(4-methylsulfonylphenyl)imidazole], for which the inhibition at 0.1 µM turned out to be 15% in assay [1] and 76% in assay [2].

Turning to `CC(C)Oc1ccc(-c2c(Cl)ncn2-c2ccc(S(C)(=O)=O)cc2)cc1` [Example 1, 4-Chloro-5-(4-isopropoxyphenyl)-1-(4-methylsulfonylphenyl)imidazole], the inhibition at 0.1 µM was 0% in assay [1] and 52% in assay [2]. Take `COc1cc(-c2c(Cl)ncn2-c2ccc(S(C)(=O)=O)cc2)ccc1F` [Example 2, 4-Chloro-5-(4-fluoro-3-methoxyphenyl)-1-(4-methylsulfonylphenyl)imidazole]: the values for the inhibition at 0.1 µM in assay [1] and in assay [2] were 0% and 82%, respectively. On the same counts, the results for `COc1ccc(-c2c(Cl)ncn2-c2ccc(S(C)(=O)=O)cc2)cc1Cl` [Example 5, 4-Chloro-5-(3-chloro-4-methoxyphenyl)-1-(4-methylsulfonylphenyl)imidazole] are 17% and 92%. With `CCOc1ccc(-c2c(Cl)ncn2-c2ccc(S(N)(=O)=O)cc2)cc1Cl` [Example 13, 4-[4-Chloro-5-(3-chloro-4-ethoxyphenyl)imidazol-1-yl]benzenesulfonamide], the inhibition at 0.1 µM in assay [1] came out at 0%; in assay [2], 97%. As for `COc1c(Cl)cc(-c2c(Cl)ncn2-c2ccc(S(N)(=O)=O)cc2)cc1Cl` [Example 15, 4-[4-Chloro-5-(3,5-dichloro-4-methoxyphenyl)imidazol-1-yl]benzenesulfonamide Hydrochloride], the inhibition at 0.1 µM in assay [1] came to 0%; in assay [2] it was 90%. For the molecule `CS(=O)(=O)c1ccc(-n2cnc(Cl)c2-c2cc(F)cc(F)c2)cc1` [Example 4, 4-Chloro-5-(3,5-difluorophenyl)-1-(4-methylsulfonylphenyl)imidazole], the inhibition at 0.1 µM came out at 2% in assay [1] and 57% in assay [2]. In the same order, the values of `CC(C)c1ccc(-c2c(Cl)ncn2-c2ccc(S(C)(=O)=O)cc2)cc1` [Example 9, 4-Chloro-5-(4-isopropylphenyl)-1-(4-methylsulfonylphenyl)imidazole] are 0% and 82%. As for `CCOc1ccc(-c2c(Cl)ncn2-c2ccc(S(N)(=O)=O)cc2)cc1F` [Example 12, 4-[4-Chloro-5-(4-ethoxy-3-fluorophenyl)imidazol-1-yl]benzenesulfonamide], the figures for the inhibition at 0.1 µM in assay [1] and in assay [2] were 0% and 65%, respectively.

`CCN(CC)c1ccc(-c2c(Cl)ncn2-c2ccc(S(C)(=O)=O)cc2)cc1` [Example 10, 4-Chloro-5-(4-N,N-diethylaminophenyl)-1-(4-methylsulfonylphenyl)imidazole]: the “% Inhibition (0.1 μM) COX-1” value in assay [1] is listed as 0%. Moreover, in assay [2], the “% Inhibition (0.1 μM) COX-2” value was found to be 64%.

For `COc1ccc(-c2c(Cl)ncn2-c2ccc(S(N)(=O)=O)cc2)cc1Cl` [Example 14, 4-[4-Chloro-5-(3-chloro-4-methoxyphenyl)imidazol-1-yl]benzenesulfonamide], the inhibition at 0.1 µM worked out at 8% in assay [1] and 87% in assay [2]. On the same counts, the results for `CCCc1ccc(-c2c(Cl)ncn2-c2ccc(S(C)(=O)=O)cc2)cc1` [Example 16, 4-Chloro-1-(4-methylsulfonylphenyl)-5-(4-propylphenyl)imidazole] are 0% and 48%. `COc1c(Cl)cc(-c2c(Cl)ncn2-c2ccc(S(C)(=O)=O)cc2)cc1Cl` [Example 8, 4-Chloro-5-(3,5-dichloro-4-methoxyphenyl)-1-(4-methylsulfonylphenyl)imidazole]: the inhibition at 0.1 µM in assay [1] is 0%; in assay [2], 92%.

On to `CCOc1ccc(-c2c(Cl)ncn2-c2ccc(S(C)(=O)=O)cc2)cc1Cl` [Example 6, 4-Chloro-5-(3-chloro-4-ethoxyphenyl)-1-(4-methylsulfonylphenyl)imidazole], for which the inhibition at 0.1 µM in assay [1] was found to be 0%; in assay [2], 87%. As to `COc1cc(-c2c(Cl)ncn2-c2ccc(S(N)(=O)=O)cc2)ccc1F` [Example 11, 4-[4-Chloro-5-(4-fluoro-3-methoxyphenyl)imidazol-1-yl]benzenesulfonamide], the inhibition at 0.1 µM in assay [1] came to 0%; in assay [2], 88%. Turning to `CS(=O)(=O)c1ccc(-n2cnc(Cl)c2-c2ccc3c(c2)OCO3)cc1` [Example 7, 4-Chloro-5-[3,4-(methylenedioxy)phenyl]-1-(4-methylsulfonylphenyl)imidazole], in assay [1], the “% Inhibition (0.1 μM) COX-1” value is 1%.

A word on the inhibition: it is the share of the control response that was lost under treatment. The low end stands for a weak effect, the high end for a strong effect.
